# From US20120010235A1, “N-SUBSTITUTED PYRROLIDINES” (priority 2010, published 2012)
# Counter-ions that a name gives are not always drawn.
# Test system: SJSA, an osteocarcinoma cell line
# Experiment: antiproliferative activity assay (tetrazolium dye, MTT) in SJSA cells
# Details: cell-based MTT assay, inhibition of cell proliferation, read-out: TT IC50
# Protocol: The pharmacological properties of the compounds of this invention may be confirmed by a number of pharmacological assays. The exemplified antiproliferative activity assay which follows has been carried out with the compounds according to the invention.
# Cell proliferation was evaluated by the tetrazolium dye assay according to the procedure of Denizot and Lang (Denizot, F. and Lang, R. (1986) Rapid colorimetric assay for cell growth and survival. Modification to the terrazolium dye procedure giving improved sensitivity and reliability. J. Immunol. Methods 89, 271-277). The cell line used was SJSA, an osteocarcinoma cell line obtained from the American Type Cell Culture Collection (ATCC; Rockville, Md.). The cells were grown in PRMI with 10% FBS (Fetal Bovine Serum, Invitrogen).
# Cells were plated at the appropriate seeding density to give logarithmic growth over the course of the assay in a 96-well tissue culture plate. Plates were incubated overnight at 37° C. in a humidified incubator with 5% CO2. The next day, test compounds were serially diluted 1:3 in the appropriate medium containing 3% DMSO. One-tenth final volume of each dilution was added […] to the plates containing cells. The same volume of 3% DMSO in medium was added to a row of control wells. Thus, the final concentration of DMSO in all wells was 0.3%. The plates were returned to the incubator, and at set time points (determined by their growth curves) plates were analyzed as follows: 3-(4,5-dimethylthiazole-2-yl)-2,5-diphenyl-2H-tetrazolium bromide (thiazolyl blue; MTT; Sigma) was added to each well to yield a final concentration of 1 mg/ml. Plates were returned to the incubator for 2.5 hours. The MTT-containing medium was removed and the resulting formazan metabolite was solubilized in 100% ethanol with shaking for 15 minutes at room temperature. Absorbances were read in a microtiter plate reader at a wavelength of 570 nm with a 650 nm reference. Percent inhibition (% INH) was calculated by subtracting the blank from all wells, then subtracting the ratio of the average absorbance of each triplicate (SAVE) by the average of the controls (CAVE) from 1.00. The final product was then multiplied by 100 (% INH=(1.00−SAVE/CAVE)×100). The concentration at which 50% inhibition (IC50) of cell proliferation is obtained was determined from the linear regression of a plot of the logarithm of the concentration versus percent inhibition.
row,IC50 [nM],SMILES
1,30,"COc1cc(C(=O)O)ccc1NC(=O)[C@H]1[C@H](c2cccc(Cl)c2F)[C@@](C#N)(c2ccc(Cl)cc2F)[C@H](CC(C)(C)C)N1CCCCCO (racemic) [Example 56, rac-4-{[(2R,3S,4R,5S)-3-(3-chloro-2-fluoro-phenyl)-4-(4-chloro-2-fluoro-phenyl)-4-cyano-5-(2,2-dimethyl-propyl)-1-(5-hydroxy-pentyl)-pyrrolidine-2-carbonyl]-amino}-3-methoxy-benzoic acid]"
2,390,"CN1[C@@H](CC(C)(C)C)[C@](C#N)(c2ccc(Cl)cc2F)[C@@H](c2cccc(Cl)c2F)[C@@H]1C(=O)Nc1ccc(C(=O)O)cc1 [Example 25, 4-{[(2R,3S,4R,5S)-3-(3-chloro-2-fluoro-phenyl)-4-(4-chloro-2-fluoro-phenyl)-4-cyano-5-(2,2-dimethyl-propyl)-1-methyl-pyrrolidine-2-carbonyl]-amino}-benzoic acid]"
3,320,"CN1[C@@H](CC(C)(C)C)[C@](C#N)(c2ccc(Cl)cc2F)[C@@H](c2cccc(Cl)c2F)[C@@H]1C(=O)Nc1ccc(C(=O)O)c(F)c1 [Example 26, 4-{[(2R,3S,4R,5S)-3-(3-chloro-2-fluoro-phenyl)-4-(4-chloro-2-fluoro-phenyl)-4-cyano-5-(2,2-dimethyl-propyl)-1-methyl-pyrrolidine-2-carbonyl]-amino}-2-fluoro-benzoic acid trifluoroacetate salt]"
4,1950,"CN1[C@@H](CC(C)(C)C)[C@](C#N)(c2ccc(Cl)cc2F)[C@@H](c2cccc(Cl)c2F)[C@@H]1C(=O)Nc1ccc(C(C)(C)C(=O)O)cc1 [Example 27, 2-(4-{[(2R,3S,4R,5S)-3-(3-chloro-2-fluoro-phenyl)-4-(4-chloro-2-fluoro-phenyl)-4-cyano-5-(2,2-dimethyl-propyl)-1-methyl-pyrrolidine-2-carbonyl]amino}-phenyl)-2-methyl-propionic acid]"
5,190,"COc1cc(C(=O)O)ccc1NC(=O)[C@H]1[C@H](c2cccc(Cl)c2F)[C@@](C#N)(c2ccc(Cl)cc2F)[C@H](CC(C)(C)C)N1C [Example 31, 4-{[(2R,3S,4R,5S)-3-(3-chloro-2-fluoro-phenyl)-4-(4-chloro-2-fluoro-phenyl)-4-cyano-5-(2,2-dimethyl-propyl)-1-methyl-pyrrolidine-2-carbonyl]-amino}-3-methoxy-benzoic acid]"
6,660,"CC(C)CN1[C@@H](CC(C)(C)C)[C@](C#N)(c2ccc(Cl)cc2F)[C@@H](c2cccc(Cl)c2F)[C@@H]1C(=O)Nc1ccc(C(=O)O)cc1 [Example 32, 4-{[(2R,3S,4R,5S)-3-(3-chloro-2-fluoro-phenyl)-4-(4-chloro-2-fluoro-phenyl)-4-cyano-5-(2,2-dimethyl-propyl)-1-isobutyl-pyrrolidine-2-carbonyl]-amino}-benzoic acid]"
7,90,"COc1cc(NC(=O)[C@H]2[C@H](c3cccc(Cl)c3F)[C@@](C#N)(c3ccc(Cl)cc3F)[C@H](CC(C)(C)C)N2CC2CC2)ccc1C(=O)O [Example 38, 4-{[(2R,3S,4R,5S)-3-(3-chloro-2-fluoro-phenyl)-4-(4-chloro-2-fluoro-phenyl)-4-cyano-1-cyclopropylmethyl-5-(2,2-dimethyl-propyl)-pyrrolidine-2-carbonyl]-amino}-2-methoxy-benzoic acid]"
8,750,"COC(=O)c1nc(NC(=O)[C@H]2[C@H](c3cccc(Cl)c3F)[C@@](C#N)(c3ccc(Cl)cc3F)[C@H](CC(C)(C)C)N2C)n[nH]1 [Example 54, 5-{[(2R,3S,4R,5S)-3-(3-chloro-2-fluoro-phenyl)-4-(4-chloro-2-fluoro-phenyl)-4-cyano-5-(2,2-dimethyl-propyl)-1-methyl-pyrrolidine-2-carbonyl]-amino}-2H-[1,2,4]triazole-3-carboxylic acid methyl ester]"
9,4000,"CN1[C@@H](CC(C)(C)C)[C@](C#N)(c2ccc(Cl)cc2F)[C@@H](c2cccc(Cl)c2F)[C@@H]1C(=O)Nc1ncc(C(=O)O)[nH]1 [Example 55, 2-{[(2R,3S,4R,5S)-3-(3-chloro-2-fluoro-phenyl)-4-(4-chloro-2-fluoro-phenyl)-4-cyano-5-(2,2-dimethyl-propyl)-1-methyl-pyrrolidine-2-carbonyl]-amino}-3H-imidazole-4-carboxylic acid trifluoracetate salt]"
10,3590,"CN1[C@@H](CC(C)(C)C)[C@](C#N)(c2ccc(Cl)cc2F)[C@@H](c2cccc(Cl)c2F)[C@@H]1C(=O)Nc1ccn(CC(C)(C)O)n1 [Example 58, (2R,3S,4R,5S)-3-(3-chloro-2-fluoro-phenyl)-4-(4-chloro-2-fluoro-phenyl)-4-cyano-5-(2,2-dimethyl-propyl)-1-methyl-pyrrolidine-2-carboxylic acid [1-(2-hydroxy-2-methyl-propyl)-1H-pyrazol-3-yl]-amide]"
11,680,"CCOC(=O)C1CC1CN1[C@@H](CC(C)(C)C)[C@](C#N)(c2ccc(Cl)cc2F)[C@@H](c2cccc(Cl)c2F)[C@@H]1C(=O)Nc1ccc(C(=O)OC)cc1OC (stereo partly drawn) [Example 61, 4-{[(2R,3S,4R,5S)-3-(3-chloro-2-fluoro-phenyl)-4-(4-chloro-2-fluoro-phenyl)-4-cyano-5-(2,2-dimethyl-propyl)-1-(2-ethoxycarbonyl-cyclopropylmethyl)-pyrrolidine-2-carbonyl]-amino}-3-methoxy-benzoic acid methyl ester]"
12,80,"C#CCN1[C@@H](CC(C)(C)C)[C@](C#N)(c2ccc(Cl)cc2F)[C@@H](c2cccc(Cl)c2F)[C@@H]1C(=O)Nc1ccc(C(=O)O)cc1OC [Example 62, 4-{[(2R,3S,4R,5S)-3-(3-chloro-2-fluoro-phenyl)-4-(4-chloro-2-fluoro-phenyl)-4-cyano-5-(2,2-dimethyl-propyl)-1-prop-2-ynyl-pyrrolidine-2-carbonyl]-amino}-3-methoxy-benzoic acid]"
